Laboratory results: US6784164B2, “Choline binding proteins for anti-pneumococcal vaccines” (priority 1996, dated 2004)
Read-outs that look alike come from different tables or passages of the source. No end group written: not given here.

Columns and labels:
[1] = test system: S. pneumoniae; test: Direct adherence of S. pneumoniae to wells coated with VCAM-1, fibronectin fragments, peptides or enolase; assay type: cell-based
Description: (§1) Fibronectin, its recombinant fragments, or rsVCAM were noncovalently immobilized through passive adsorption to 60 well Terasaki trays (wettable polystyrene [plasma treated], Robbins Scientific, Sunnyvale, Calif.). Briefly, substrates were reconstituted ([…]) in phosphate buffered saline (DPBS) and allowed to coat the Teresaki trays for 90 min at 37° C. […] Prior to use, the plates were washed five times with DPBS and excess liquid was removed from the wells.
(§2) Bacteria were labeled with fluorescein isothyocyanate as described [Geelen et al., Infect. Immun., 61:1538-1543 (1993)] and were resuspended in DPBS supplemented with 0.05% glucose and Ca^++ and Mg^++. Bacterial suspensions were brought to an A620 of 0.04, previously established to equal 1×10^7 cfu/ml of S. pneumoniae. 10 μl of bacteria were added to each well and incubated statically for 1 hour at 37° C. Unbound bacteria were eliminated by washing five times with DPBS. Bound bacteria were fixed to the surface by incubation with 2.5% glutaraldehyde solution for 3 minutes. Bacteria were counted visually with an inverted microscope (Nikon) equipped for fluorescence with an IF DM 510 filter. Binding was expressed as the number of attached bacteria per 0.25 mm^2 surface area. Values were corrected for non-specific binding by subtracting adherence to uncoated wells and are presented as the mean±standard deviation of at least 3 experiments with 3 to 6 wells/plate/experiment. For some experiments, binding was performed in the presence of rabbit polyclonal anti-pneumococcus R6 antibody or one of the following monoclonal antibodies: anti-choline (TEPC-15), anti-PspA Xi126 and XiR278 [McDaniel et al., Microb. Pathog., 13:261-9 (1992)]; anti-pneumococcal surface adhesin A PsaA [Sampson et al., Infect. Immun., 62:319-324 (1994)]; anti-VLA-4 (R & D Systems); and anti-VCAM-1 (R & D Systems). Alternatively, potential inhibition of pneumococcal binding was assessed in the presence of purified recombinant PspA or PsaA.

[2] = Antigenicity: CBPs injected into rabbits, sera tested by Western blot; set-up: species or system rabbit
Description: Vaccine candidates must be antigenic. The CBPs from choline agarose chromatography were injected into rabbits and sera tested for cross reactivity. Several proteins produced a strong signal. Prominent were CBPs 112, 90, 84 and 70, and 50 (FIGS. 1 and 2).
White rabbits were immunized by intradermal injection in the back with 500 μg purified CBPs in 1 ml of a 1:1 emulsion of buffer and Complete Freund's Adjuvant. The rabbits were boosted with a subcutaneous dorsal injection of 250 μg of purified CBPs in 1 ml of 1:1 buffer to Incomplete Freund's Adjuvant at weeks 3, 6, 9, 12, and 15. Rabbits were pre-bled, and test bled approximately 10 days prior to each boost. Serum obtained at week 16 were used in all experiments.
(§3) The CBPs were examined by SDS-PAGE and Western blot using the following antibodies: (1) polyclonal anti-pneumococcal serum (rabbit or “ROB”); (2) anti-PspA monoclonal antibody; (3) anti-FITC monoclonal antibody; (4) convalescent human anti-pneumococcal sera and (5) polyclonal anti-CBP antibody. 9 CBPs were identified on SDS-PAGE/Western blot.

[3] = test system: Adherence of S. pneumoniae to immobilized fibronectin; assay type: cell-based; settings: for inhibition of pneumococcal adherence to fibronectin: added to coated wells 15 min prior to bacteria
Description: as §1, §2

[4] = Western blot of CBPs with pooled human convalescent sera
Description: as §3
The CBPs were analyzed by 7.5% sodium dodecyl sulfate polyacrylamide gel electrophoresis (SDS-PAGE) and by Western blotting after electrophoretic transfer to an Immobilon-P transfer membrane (Millipore Corporation, Bedford, Mass.). For some experiments, pneumococci were labelled with fluorescein isothiocyanate (FITC) as described in the adherence assay. Western blot analysis was carried out with anti-FITC (Moleular Probes), anti-CBP or covalescent antisera each at a dilution of 1:1000. Bound antibody was detected with peroxidase conjugated goat anti-rabbit serum detected with the Chemiluminesce Kit from Amersham (Cambridge, Mass.). The convalescent sera was a mixture of sera pooled from five patients collected one month after recovery from bacteremia and pneumonia. The capsular serotypes of these infecting pneumococci were 3, 7, 14, 22, and 23.

## WQPPRARI [FN5]
[1]
  direct adherence of S. pneumoniae to coated substrate (in words): able to support adherence

## CBP84: pneumococcal choline binding protein, SEQ ID NO:3, 85% identical to Elongation Factor G (XREFSLEKTRNIGIMAHVDAGKT; X: residue not identified in the source)
[2]
  signal with sera of rabbits injected with CBPs: strong signal

## C[N+](C)(C)CCO [choline]
[3]; preincubation of bacteria in 10% choline solution
  decrease in binding of pneumococci to fibronectin: greater than 50%

## NCCCC[C@H](N)C(=O)O [L-lysine]
[3]; 0.1 M
  inhibition of pneumococcal adherence to fibronectin: 67%
[3]; 0.5M
  inhibition of pneumococcal adherence to fibronectin: 95%
[3]; 1 M
  inhibition of pneumococcal adherence to fibronectin: 99%

## NCCCCCC(=O)O [6-amino hexanoic acid]
[3]
  inhibition of pneumococcal adherence to fibronectin (in words): not able to inhibit adherence

B1: CBP112: 112 kDa surface exposed pneumococcal choline binding protein, N-terminal SEQ ID NO:1 (protein)
chain: MMREIQLDRRKHTQNVALNIKLSAIKTKYLRELNVLEEKSKDELPSEIKAKLDAAFEKFKKDTLKPGEKVAEAKKKVEEAKKKAEDQKEEDRRNYPTNTYKTLELEIAEFDVKVKEAELELVKEEAKESRNEGTIKQAKEKVESKKAEATRLENIKTDRKKAEEEAKRKADAKLKEANVATSDQGKPKGRAKRGVPGELATPDKKENDAKSSDSSVGEETLPSSSLKSGKKVAEAEKKVEEAEKKAKDQKEEDRRNYPTNTYKTLDLEIAESDVKVKEAELELVKEEAKEPRDEEKIKQAKAKVESKKAEATRLENIKTDRKKAEEEAKRKAAEEDKVKEKPAEQPQPAPATQPEKPAPKPEKPAEQPKAEKTDDQQAEEDYARRSEEEYNRLTQQQPPKTEKPAQPSTPKTGWKQENGMWYFYNTDGSMATGWLQNNGSWYYLNANGAMATGWLQNNGSWYYLNANGSMATGWLQNNGSWYYLNANGAMATGWLQYNGSWYYLNSNGAMATGWLQYNGSWYYLNANGDMATGWLQNNGSWYYLNANGDMATGWLQYNGSWYYLNANGDMATGWVKDGDTWYYLEASGAMKASQWFKVSDKWYYVNGSGALAVNTTVDGYGVNANGEWVNZ
[2]
  signal with sera of rabbits injected with CBPs: strong signal
[4]
  signal with pooled human antisera from individuals recovering from pneumococcal disease: strong signal

B2: rsVCAM: recombinant soluble vascular cell adhesion molecule-1 (protein)
chain: FKIETTPESRYLAQIGDSVSLTCSTTGCESPFFSWRTQIDSPLNGKVTNEGTTSTLTMNPVSFGNEHSYLCTATCESRKLEKGIQVEIYSFPKDPEIHLSGPLEAGKPITVKCSVADVYPFDRLEIDLLKGDHLMKSQEFLEDADRKSLETKSLEVTFTPVIEDIGKVLVCRAKLHIDEMDSVPTVRQAVKELQVYISPKNTVISVNPSTKLQEGGSVTMTCSSEGLPAPEIFWSKKLDNGNLQHLSGNATLTLIAMRMEDSGIYVCEGVNLIGKNRKEVELIVQEKPFTVEISPGPRIAAQIGDSVMLTCSVMGCESPSFSWRTQIDSPLSGKVRSEGTNSTLTLSPVSFENEHSYLCTVTCGHKKLEKGIQVELYSFPRDPEIEMSGGLVNGSSVTVSCKVPSVYPLDRLEIELLKGETILENIEFLEDTDMKSLENKSLEMTFIPTIEDTGKALVCQAKLHIDDMEFEPKQRQSTQTLYVNVAPRDTTVLVSPSSILEEGSSVNMTCLSQGFPAPKILWSRQLPNGELQPLSENATLTLISTKMEDSGVYLCEGINQAGRSRKEVELIIQVTPKDIKLTAFPSESVKEGDTVIISCTCGNVPETWIILKKKAETGDTVLKSIDGAYTIRKAQLKDAGVYECESKNKVGSQLRSLTLDVQGRENNKDYFSPE
[3]; preincubation of the bacteria with the substance
  inhibition of adherence of S. pneumoniae to fibronectin: 96%
[1]
  density of S. pneumoniae adhering directly to coated wells: 75±18 bacteria/0.25 mm ^2
  direct adherence as share of adherence to whole fibronectin: 6%

B3: 2-phospho-D-glycerate hydrolyase (protein, UniProt P00924 2-437, looked up)
Enolase 1: AVSKVYARSVYDSRGNPTVEVELTTEKGVFRSIVPSGASTGVHEALEMRDGDKSKWMGKGVLHAVKNVNDVIAPAFVKANIDVKDQKAVDDFLISLDGTANKSKLGANAILGVSLAASRAAAAEKNVPLYKHLADLSKSKTSPYVLPVPFLNVLNGGSHAGGALALQEFMIAPTGAKTFAEALRIGSEVYHNLKSLTKKRYGASAGNVGDEGGVAPNIQTAEEALDLIVDAIKAAGHDGKIKIGLDCASSEFFKDGKYDLDFKNPNSDKSKWLTGPQLADLYHSLMKRYPIVSIEDPFAEDDWEAWSHFFKTAGIQIVADDLTVTNPKRIATAIEKKAADALLLKVNQIGTLSESIKAAQDSFAAGWGVMVSHRSGETEDTFIADLVVGLRTGQIKTGAPARSERLAKLNQLLRIEEELGDNAVFAGENFHHGDKL
notes: glycolytic enzyme enolase (Sigma), yeast
[3]; 1000 U/ml, added to fibronectin coated wells prior to bacteria
  maximum inhibition of pneumococcal adherence to fibronectin: 98%
[1]
  direct adherence of S. pneumoniae to coated substrate (in words): No direct adherence
